Source: article PMC6058731, “Dual-targeting for brain-specific drug delivery: synthesis and biological evaluation” (Drug Delivery, 2018)

Legend:
[1] = Distribution in brain in mice, brain homogenate; format: in vivo, Kunming mice; settings: for AUC(0–t): brain homogenate, ibuprofen after hydrolysis of sample, 10 mg/kg (calculated as ibuprofen) tail vein
Protocol: Kunming mice weighing 20–22 g were purchased from DOSSY Experimental Animal Center of Chengdu (Sichuan, China). All animal procedures for this study were approved by the Experiment Animal Administrative Committee of Sichuan University (P.R. China).
At appropriate time interval (5, 10, 15, 30, 45, 60, 90, 120, 240 and 480 min), blood was collected from the eye socket of mouse into a tube containing heparin, and centrifuged at 5000 rpm for 5 min. The supernatant was collected as plasma sample. The animals were killed by cervical dislocation, and the brain tissue was removed, and then washed with saline for three times to remove the remained blood and rolled over on the filter paper to remove the main vessel. All the brain tissues were homogenized with twice amount of saline. An aliquot of 10 μl of internal standard (naproxen, 30 μg/ml) was added into 200 μl plasma or 200 μl brain homogenate, the mixture was vortexed with 200 μl methanol for 5 min. Then, an aliquot of 50 μl of 6 M NaOH aqueous solution was added to the spiking mixture. […] Followed by vortexing for 5 min, 0.6 ml acetonitrile was added and the mixture was centrifuged at 15,000 rpm for 10 min. The separated supernatant was evaporated to dryness at 40 °C under air flow. The residues were redissolved in 50 μl methanol and centrifuged at 15,000 rpm for 10 min, and then 20 μl of the supernatant was injected into the HPLC system for analysis.
The area under the curve (AUC0–t) and the maximal concentration (Cmax) were calculated by Data and Statistics (DAS, Shanghai, China). The statistical analysis of the samples was performed by using a Student’s t-test with p values < .05 as the minimal level of significance. The relative uptake efficiency (RE) and concentration efficiency (CE) were calculated to evaluate the brain-targeting property of prodrugs. The values of REbrain and CEbrain are defined as follows: RE = (AUC 0) Pro/(AUC 0) Ibu, CE=(Cmax)Pro/(Cmax)Ibu.

[2] = system: cerebral ischemia model induced by bilateral common carotid artery occlusion; assay: Brain ischemia model, TTC staining of brain sections; format: in vivo, Wistar rats; settings: rats, 1 mg/kg (calculated as ibuprofen) tail vein, 30 min before 1.5 h ligation
PC12 cells [3] = assay: SOD activity after H2O2 in vitro (colorimetry kit); format: cell-based; settings: 10 μM pretreatment 4 h, then H2O2 (1 μM) 2 h
Protocol: (§1) The in vitro neurotoxicity model was established using H2O2 to induce oxidative stress and injury in PC12 cells.
The ROS assay kit (S0033; Beyotime Institute of Biotechnology, Jiangsu, China) in DCFH-DA method was used to determine the intracellular ROS generation. PC12 cells were seeded in six-well plates at a density of 5 × 10^5 cells/well and incubated at 37 °C for 24 h. […] Then trypsin–EDTA was used to harvest the cells, which were washed three times with PBS afterward, and finally stained with 2′,7′-dichlorofluorescein diacetate (DCFH-DA, 10 μM) and incubated for 20 min at 37 °C in the dark. After centrifugation (2000 rpm, 3 min), the cell pellet was washed three times with PBS, resuspended in PBS before flow cytometer analysis (Ex 488 nm and Em 525 nm). SOD is an index of superoxide level which neutralizes free oxygen radicals, usually being tested along with ROS level showing oxidative stress. In brief, after harvesting, the cells were resuspended in PBS and lysed by Ultrasonic cell grinder (SCIENTZ-II D, Zhejiang, China) to obtain the cell lysis solution. Then, the SOD activity was evaluated using colorimetry kits (A001; Nanjing Jiancheng Bioengineering Institute, Nanjing, China). Untreated cells were used as the control.

[4] = Metabolic stability in mice brain homogenate; format: in vitro ADME; settings: 37 °C
Protocol: (§2) The preliminary metabolic stability of prodrugs was studied by incubating in plasma and brain homogenate, respectively. 1 ml of the prodrugs methanol solution (250 μM) was added into 4 ml plasma or brain homogenate. Then, the entire system was kept at 37 ± 0.5 °C with continuous shaking at 100 rpm/min. 200 μl samples were taken at the following time points: 0, 0.5, 1, 2, 3, 6, 12, and 24 h, and then replaced by plasma or brain homogenate. The internal standard (naproxen, 10 μl, 30 μg/ml) was added to each sample followed by 200 μl acetonitrile.
(§3) The metabolic stability of the prodrugs was studied in the mice plasma and brain homogenate at 37 °C. The Kdisapp and t1/2 of the prodrugs in plasma and brain homogenate were calculated by linear regression of the peak area against time (Table 2).

PC12 cells [5] = assay: Neuroprotective effect against H2O2-induced cytotoxicity, MTT cell viability; format: cell-based; settings: Rattus norvegicus, PC-12, 10 μM pretreatment 4 h, then H2O2 (1 μM) 2 h, read-out: Cell viability (survival rate compared to control)
Protocol: as §1
Briefly, PC12 cells were seeded in 96-well plates at the density of 6 × 10^4 cell/well and incubated at 37 °C for 24 h. […] After the treatment, the cells were observed under inverted phase contrast microscopy and cell images were recorded. Subsequently, the cells viability was assessed by MTT assay using a microplate reader.

[6] = In vitro chemical stability in phosphate buffers; format: physicochemical; settings: 37 °C
Protocol: The in vitro chemical stability of prodrugs was investigated by incubating the prodrugs in pH 2.5, 5.0, 7.4 and 8.0 phosphate buffers, respectively. Briefly, 1 ml of the prodrugs methanol solution (250 μg/ml) was added into 4 ml different buffer separately. The entire system was kept at 37 ± 0.5 °C with continuous shaking at 100 rpm/min. 200 μl medium samples were taken at the following time points: 0, 0.5, 1, 2, 3, 6, 12, and 24 h, and then replaced by fresh medium. The samples were analyzed by HPLC (Shimadzu). The analysis was accomplished on a SinoChrom ODS-C18 column (Dalian, China) (200 × 4.6 mm, […]), thermostated at 35 °C. The mobile phase was composed of methanol/water (73:27), and the pH was adjusted to 2.86 with 10% phosphoric acid. The UV […] was 225 nm and the flow rate was set at 1.0 ml/min with a 20 μl injection volume.
These solutions were maintained at 37 °C, and the aliquots were withdrawn in predetermined time intervals, then the concentrations of the prodrugs were determined by HPLC method.

[7] = Metabolic stability in mice plasma; format: in vitro ADME; settings: 37 °C
Protocol: as §2, §3

[8] = system: cerebral ischemia model induced by bilateral common carotid artery occlusion; assay: Brain ischemia model, SOD, MDA and GSH in brain homogenate; format: in vivo, Wistar rats; settings: rat brain homogenate, 1 mg/kg (calculated as ibuprofen) tail vein; for MDA level: relative to sham group
[9] = Kunming, mouse, iv, brain, analyte intact prodrug, before hydrolysis, 10 mg/kg tail vein
[10] = brain, analyte ibuprofen (dosed or released), before hydrolysis, 10 mg/kg tail vein

**Q.** For CC(C)Cc1ccc(C(C)C(=O)OC(COC(=O)CCC(=O)OCC2OC(O)C(O)C(O)C2O)C2OC(=O)C(O)=C2O)cc1 (centres unmarked) [Glu-Vc-Ibu], which Cmax [1, 9] is on record?
**A.** 26400 ± 1970 ng/g

**Q.** What about the MRT [1, 9] of the same compound?
**A.** 2.73 h

**Q.** And the Tmax [1, 9]?
**A.** 0.25 h

**Q.** And the “AUC(0–t)” value [1]?
**A.** 7308.11 ± 447.86 µg·min/g

**Q.** And the “AUC(0-t)” value [1, 10]?
**A.** 3393.98 ± 257.39 µg·min/g

**Q.** And the “AUC(0-t)” value ([1]; brain, analyte intact prodrug, before hydrolysis, 10 mg/kg tail vein)?
**A.** 3459.18 ± 223.76 µg·min/g

**Q.** And the “TTC red-staining rate compared with the sham group” value [2]?
**A.** 87.95%

**Q.** What about the SOD activity (PC12 cells [3]) of the same compound?
**A.** markedly relieved the damage compared with others

**Q.** What about the Kdisapp [4] of the same compound?
**A.** 0.000542 s⁻¹

**Q.** And the half-life at 50 μM ([4]; mouse)?
**A.** 0.355 h

**Q.** And the viability at 10 µM (PC12 cells [5])?
**A.** 89.9%

**Q.** What about the Kdisapp ([6]; pH 2.5 phosphate buffer) of the same compound?
**A.** 1.07e-05 s⁻¹

**Q.** And the half-life at 50 μg/ml ([6]; pH 2.5 phosphate buffer)?
**A.** 18.1 h

**Q.** And the Kdisapp ([6]; pH 5.0 phosphate buffer)?
**A.** 3.86e-06 s⁻¹

**Q.** What about the half-life at 50 μg/ml ([6]; pH 5.0 phosphate buffer) of the same compound?
**A.** 49.9 h

**Q.** And the Kdisapp ([6]; pH 7.4 phosphate buffer)?
**A.** 1.5e-05 s⁻¹

**Q.** And the half-life at 50 μg/ml ([6]; pH 7.4 phosphate buffer)?
**A.** 12.8 h

**Q.** And the Kdisapp ([6]; pH 8.0 phosphate buffer)?
**A.** 1.74e-05 s⁻¹

**Q.** And the half-life at 50 μg/ml ([6]; pH 8.0 phosphate buffer)?
**A.** 11.1 h

**Q.** What about the Kdisapp [7] of the same compound?
**A.** 0.000187 s⁻¹

**Q.** And the half-life at 50 μM ([7]; mouse)?
**A.** 1.03 h

**Q.** And the SOD activity [8]?
**A.** significant raise compared with saline group or ibuprofen group

**Q.** What about the MDA level [8] of the same compound?
**A.** 110.96%

**Q.** Which results are given for CC(C)Cc1ccc(C(C)C(=O)O)cc1 (centres unmarked) [Ibuprofen, reference compound]?
**A.** AUC(0–t) [1]: 2782.42 ± 176.55 µg·min/g; AUC(0-t) [1, 10]: 2782.42 ± 176.55 µg·min/g; TTC red-staining rate compared with the sham group [2]: 48.09%; viability at 10 µM (PC12 cells [5]): 74.1%; SOD activity [8]: did not obviously reverse the decrease of SOD activity; MDA level [8]: 192.42%
